This is an account of results in paper PMC9879403, “Oncolytic strategy using new bifunctional HDACs/BRD4 inhibitors against virus-associated lymphomas” (PLOS Pathogens, 2023).

Data set [1] is described as follows: WST-1 cytotoxicity assay, BJAB (KSHV negative lymphoma). The data set is classed as cell-based. As to conditions: human; 50% cytotoxic concentration, 72 h, WST-1; read-out: KSHV negative lymphomas CC50, BJAB. The text has this: (§1) Fig 2 Identification of newly synthesized dual inhibitors with anti-PEL activities. (A) The binding mode of (+)-JQ1 with BRD4^BD1 (PDB: 3MXF). BRD4^BD1 is shown as hot pink cartoon with gray surface. Asn140 in BRD4^BD1 is shown as sticks and colored in following pattern: atom C hot pink, atom N dark blue, and atom O yellow. (+)-JQ1 is shown as sticks and colored in following patten: atom C hot pink, atom N dark blue, atom O yellow, atom S golden, and atom Cl green. The solvent exposed region (SEG) of (+)-JQ1 are indicated with white arrow. (B) The binding modes of SAHA and entinostat with HDAC2 (PDB: 3MAX). HDAC2 is shown as blue cartoon with gray surface. Asp181 and His183 in HDAC2 are shown as sticks and colored in following pattern: atom C blue, atom N dark blue, and atom O yellow. The catalytic zinc ion in the active site of HDAC2 is shown as black sphere. SAHA is shown as sticks and colored in following pattern: atom C green, atom N dark blue, and atom O yellow. Entinostat is shown as sticks and colored in following pattern: atom C hot pink, atom N dark blue, and atom O yellow. The SEG of SAHA or entinostat is indicated with white arrow. Hydrogen bonds (H-bonds) are presented by red dash lines. (C) The HDACs/BRD4 dual inhibitors 002-011 were designed by fusing the key pharmacophores of (+)-JQ1 (pink) and HDAC inhibitors (blue), SAHA or entinostat, via various chemical linkers (green). (D) Anti-PEL activities of the new compounds. Five KSHV positive and two KSHV negative lymphoma cell lines were treated with indicated concentrations of these compounds for 72 h. Then the cytotoxicity was determined using the WST-1 assay. (+)-JQ1, SAHA and entinostat were used for the comparisons as single inhibitors. The CC50 for each compound was calculated using GraphPad Prism 5.0 software. Error bars represent S.D. for 3 independent experiments.
(§2) The cell viability following treatment with compounds was assessed by the WST-1 assay (Roche, Indianapolis, Indiana, USA) according to the manufacturer’s protocol as described previously. The absorbance signal was measured using a microplate reader (Biotek Synergy 2). The 50% cytotoxic concentration (CC50) for each compound was calculated from these dose-response curves using the software GraphPad Prism v5.0. Data were normalized as the fold change compared to the DMSO control.

A further data set relates to HDACs. Nature of the data set: HDACs signaling by Western blot (H3K9Ac, H4K9Ac, Acetyl-tubulin). The data set is classed as cell-based.
The subject of data set [2] is BCBL-1 cells. Nature of the data set: Cell death regulatory proteins by Western blot. As to conditions: 50 nM, 48 h. The data set is classed as cell-based. In general terms: In western blotting, separated proteins are transferred to a membrane and probed.
Another data set relates to BJAB.219. Nature of the data set: WST-1 cytotoxicity assay, BJAB.219 (KSHV-infected lymphoma). The data set is classed as cell-based. As to conditions: 72 h, read-out: KSHV-infected lymphomas CC50, BJAB.219.
Source text: as §1
BCBL-1 and iSLK.219 cells were kindly provided by Dr. Pinghui Feng (University of Southern California). BL-41, BJAB, BCP-1, BC-1, BC-3, JSC-1, HUVEC cells were purchased from American Type Culture Collection (ATCC), and cultured as recommended by the manufacturer. For making BJAB.219 cells, BJAB cells were infected with rKSHV.219 stock by spinoculation as previously reported by centrifugation at 1500×g for 60 min [31]. Then, puromycin (10 μg/ml) was added into the medium at 72 h post-infection and the medium containing puromycin was replaced twice a week. After 6-week high concentration of puromycin selection, BJAB.219 cells were then cultured in the medium with 0.5 μg/ml puromycin.
The cell viability following treatment with compounds was assessed by the WST-1 assay (Roche, Indianapolis, Indiana, USA) according to the manufacturer’s protocol as described previously. The absorbance signal was measured using a microplate reader (Biotek Synergy 2). […]
For orientation: Tetrazolium assays rely on reduction of a dye to a coloured formazan, in cell work by metabolically active cells.

The test system of data set [3] is KSHV. Nature of the data set: Viral DNA levels in PEL cells by qPCR. The data set is classed as cell-based. A general note: In qPCR the cycle at which signal appears reflects the starting amount.
The nature of data set [4]: WST-1 cytotoxicity assay, BL-41 (KSHV negative lymphoma). The data set is classed as cell-based. The settings on record: human; 50% cytotoxic concentration, 72 h, WST-1; read-out: KSHV negative lymphomas CC50, BL-41.
Source text: as §1, §2

Data set [5] relates to BCBL-1 cells. Nature of the data set: PEL xenograft model (BCBL-1 cells i.p.). The procedure: (A) Plasma concentrations of (+)-JQ1, SAHA, or 009P1 after a single administration of 50 mg per kg body (i.p. injection) were presented as mean ± SD (n = 3 mice per time point). (B-E) NOD/SCID mice were injected i.p. with BCBL-1 cells. 72 h later, the compounds or vehicle were administered i.p. as described in the Methods, and weights were recorded weekly. At the end of the treatment period, the splenic tissues were collected from the vehicle or compound treated mice, compared and processed with the H&E and IHC staining. (F) Plasma concentrations of 009P1 after a single administration of 50 mg per kg body (oral gavage) were presented as mean ± SD (n = 3 mice per time point). (G-I) NOD/SCID mice were injected i.p. with BCBL-1 cells. 72 h later, the compounds or vehicle were administered orally as described in the Methods, and weights were recorded weekly.
In all NOD/SCID mice, 6–8-week-old, male (Jackson Laboratory, Ellsworth, Maine, USA), 1 × 10^7 BCBL-1 cells in 200 μL RMPI-1640 without FBS were injected intraperitoneally and then mice were randomized into treatment groups of 6 mice as described previously. The tested compounds or vehicle was administered initially at 72 h after BCBL-1 injections, and continued once daily, 2 days per week for 3 weeks. Weights were recorded weekly as a surrogate measure of tumor progression. At the end of experiment, the spleens of mice were excised for immunoblots and immunohistochemical analyses.
Formalin-fixed, paraffin-embedded tissues were microtome-sectioned to a thickness of 4 μm and placed on electromagnetically charged slides. Immunohistochemistry was performed as described previously, and the c-Myc and H3K9Ac antibodies were purchased from Abcam. Images were collected using an Olympus BX61 microscope equipped with a high resolution DP72 camera and CellSense image capture software.

Data set [6] can be described thus: Toxicity study, oral administration at 100 mg/kg.
In data set [7] the test system is KSHV. The data set is classed as cell-based.

Molecules are shown by their SMILES. Like-named read-outs stand apart in the source and are kept apart here.

For the molecule `O=C(CCCCCCC(=O)Nc1ccccc1)NO` [SAHA, suberoylanilide hydroxamic acid, reference compound], the CC50 (in general, the concentration giving 50% cytotoxicity) at 72 h in data set [1] amounted to 3340 nM; in data set [4], 3940 nM. Moreover, the “H3K9Ac, H4K9Ac and Acetyl-tubulin protein levels” value in the data set with HDACs was “upregulated”. The “Expression of p-RB, cleaved-caspase 3 and cleaved-PARP” value (“Expression of p-RB” below) with BCBL-1 cells [2] is on record as “almost unchanged”. The CC50 with BJAB.219 (50% cytotoxic concentration, WST-1) worked out at 560 nM. In the data set on KSHV [3], the “Viral DNA levels” value was “obviously increased”.

Consider `Cc1sc2c(c1C)C(c1ccc(Cl)cc1)=N[C@@H](CC(=O)OC(C)(C)C)c1nnc(C)n1-2` [(+)-JQ1, reference compound], for which, in data set [1], the CC50 at 72 h is 1110 nM. In the data set with BCBL-1 cells [5] (i.p., 50 mg/kg), the “Tumor infiltration into the spleen (H&E)” value is reported as “slightly reduced” and the “Visible toxicity in mice (abnormal weight loss)” value is on record as “visible toxicity”. Besides, the “Expression of p-RB” value in the data set with BCBL-1 cells [2] is recorded as “almost unchanged”. The CC50 in the data set on BJAB.219 was around 120 nM. Also, the “Toxicity in the mice” value in [6] is “severe toxicity”. The CC50 at 72 h in [4] is 680 nM.

On to `Cc1sc2c(c1C)C(c1ccc(Cl)cc1)=N[C@@H](CC(=O)O[C@H](C)c1ccc(C(=O)Nc3ccccc3N)cc1)c1nnc(C)n1-2` [009P1, (R)-1-(4-((2-aminophenyl)carbamoyl)phenyl)ethyl 2-((S)-4-(4-chlorophenyl)-2,3,9-trimethyl-6H-thieno[3,2-f][1,2,4]triazolo[4,3-a][1,4]diazepin-6-yl)acetate], for which the “H3K9Ac, H4K9Ac and Acetyl-tubulin protein levels” value with HDACs (BCBL-1 cells, 48 h, Western blot) is on record as “increased”. Moreover, in the data set with BCBL-1 cells [5] (i.p., 20 mg/kg), the “PEL tumor progression (ascites formation, spleen enlargement)” value is listed as “dramatically suppressed PEL tumor progression”; the “Tumor infiltration into the spleen (H&E)” value was “only diffuse small tumor nodules”; the “Visible toxicity in mice (abnormal weight loss)” value is on record as “not observed”. Moreover, the “Tumor burden in mice (ascites formation, spleen enlargement)” value with BCBL-1 cells [5] (oral administration, 20 mg/kg) is reported as “effectively repressed tumor burden”. Further, the “Expression of p-RB” value in the data set with BCBL-1 cells [2] is “strongly affected”. Besides, the “Viral DNA levels” value with KSHV [3] is “slightly increased”. Besides, in the data set with KSHV [7], the “Expression of viral genes (LANA, RTA, ORF26)” value is on record as “significantly increased”.
